ChEMBL document CHEMBL1149186, “Triacylglycerols based on 2-(N-tert-butoxycarbonylamino)oleic acid are potent inhibitors of pancreatic lipase” (J Med Chem, 2004)

Key:
[1] = molecular target: T1, Pancreatic triacylglycerol lipase (Homo sapiens) (UniProt P16233); assay: Inhibition constant (molar fraction of compound) on human pancreatic lipase (HPL) at a constant surface pressure of 25 […]
T1 sequence (whole entry): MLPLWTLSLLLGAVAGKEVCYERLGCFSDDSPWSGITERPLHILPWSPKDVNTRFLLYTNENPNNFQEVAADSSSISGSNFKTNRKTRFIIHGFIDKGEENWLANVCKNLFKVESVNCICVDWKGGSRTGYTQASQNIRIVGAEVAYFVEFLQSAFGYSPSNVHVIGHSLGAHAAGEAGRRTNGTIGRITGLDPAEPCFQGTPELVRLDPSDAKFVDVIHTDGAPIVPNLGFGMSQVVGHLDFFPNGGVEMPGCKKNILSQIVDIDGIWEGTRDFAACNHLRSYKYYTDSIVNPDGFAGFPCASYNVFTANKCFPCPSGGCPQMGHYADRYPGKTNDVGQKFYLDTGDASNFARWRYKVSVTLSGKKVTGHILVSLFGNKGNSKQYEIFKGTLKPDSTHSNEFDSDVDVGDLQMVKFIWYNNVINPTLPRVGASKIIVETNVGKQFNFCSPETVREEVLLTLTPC

[2] = molecular target: T2, Gastric triacylglycerol lipase (Homo sapiens) (UniProt P07098); assay: Inhibition constant (molar fraction of compound) on human gastric lipase (HGL) at a constant surface pressure of 27 […]; details: Stomach
T2 sequence (whole entry): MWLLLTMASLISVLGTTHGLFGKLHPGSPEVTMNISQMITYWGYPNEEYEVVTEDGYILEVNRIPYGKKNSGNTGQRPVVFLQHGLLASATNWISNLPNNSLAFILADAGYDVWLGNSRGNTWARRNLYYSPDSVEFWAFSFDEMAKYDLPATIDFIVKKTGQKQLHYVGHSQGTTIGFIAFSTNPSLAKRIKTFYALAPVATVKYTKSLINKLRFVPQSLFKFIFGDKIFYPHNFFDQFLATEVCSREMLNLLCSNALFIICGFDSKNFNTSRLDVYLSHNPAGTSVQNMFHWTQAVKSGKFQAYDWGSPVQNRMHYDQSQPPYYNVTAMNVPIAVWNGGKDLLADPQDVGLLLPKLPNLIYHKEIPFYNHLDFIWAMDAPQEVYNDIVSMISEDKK

[3] = molecular target: T1, Pancreatic triacylglycerol lipase (Homo sapiens); assay: Inhibition constant (molar fraction of compound) on human pancreatic lipase (HPL) at a constant surface pressure of 14 […]
[4] = molecular target: T2, Gastric triacylglycerol lipase (Homo sapiens); assay: Inhibition constant (molar fraction of compound) on human gastric lipase (HGL) at a constant surface pressure of 17 […]; details: Stomach

Row | Alpha 50 (molar fraction) [1] | Alpha 50 (molar fraction) [2] | Alpha 50 (molar fraction) [3] | Alpha 50 (molar fraction) [4] | Structure (SMILES)
1 | 0.002 | 0.104 | – | – | CCCCCCCC/C=C\CCCCCC[C@H](NC(=O)OC(C)(C)C)C(=O)OCC(C)(COC(=O)[C@H](CCCCCC/C=C\CCCCCCCC)NC(=O)OC(C)(C)C)OC(=O)[C@H](CCCCCC/C=C\CCCCCCCC)NC(=O)OC(C)(C)C
2 | 0.003 | 0.057 | 0.009 | 0.15 | CCCCCCCC/C=C\CCCCCC[C@H](NC(=O)OC(C)(C)C)C(=O)OCC(COC(=O)[C@H](CCCCCC/C=C\CCCCCCCC)NC(=O)OC(C)(C)C)OC(=O)[C@H](CCCCCC/C=C\CCCCCCCC)NC(=O)OC(C)(C)C
